The target of one assay is T1, H^+/K^+-ATPase (Sus scrofa, UniProt P19156).
T1 construct: used as an enzyme source of the in vitro enzyme reaction assay of proton pump; from tissue; host or cells: hog gastric fundic mucosa (membrane vesicles, lyophilized)
The experiment in a line: Inhibitory effects on proton pump (H^+/K^+-ATPase) activity, hog gastric vesicles. The format is biochemical. Particulars: K^+ stimulated H^+/K^+-ATPase activity, hog gastric vesicle, Pi measured at 620 nm. The procedure, abridged: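 Lyophilized hog gastric vesicles in Pipes/Tris pH 6.1 were preincubated 5 min with compounds (1% DMSO), then run with ATP for 30 min at 37 °C. Released phosphate was measured by malachite green at 620 nm; K^+-stimulated activity taken as the difference between reactions with and without K^+.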

Assay [1] deals with basal gastric acid secretion. Briefly: Inhibitory effects on basal gastric acid secretion in pylorus-ligated rats (Shay's rat model). The format is in vivo, Sprague Dawley (SD) rats. Particulars: oral, one hour before pylorus ligation, total acid output 5 hours after ligation, male SD rats. On the procedure:
Inhibitory effects of the compounds of the present invention on basal gastric acid secretion were performed according to Shay's rat model (Shay, H., et al., 1945, gastroenterology, 5, 43-61). Male Sprague Dawley (SD) rats (200±10 g body weight) were divided into 3 groups (n=5) and fasted for 24 hours with free access to water. Control group was orally administered with 0.5% methylcellulose alone and the other groups were orally administered with test compounds suspended in 0.5% methyl-cellulose solution at doses of 1, 3 and 10 mg/kg/5 ml one hour before pylorus ligation. Under ether anesthesia, the abdomens of the rats were incised and then the pylorus was ligated. 5 hours after ligation, the animals were sacrificed, and the gastric contents were collected. The collected contents were centrifuged at 1,000×g for 10 minutes to obtain the gastric juice. Total acid output was measured by 0.01N NaOH volume (ueq/ml) for automatic titration of the gastric juice to pH 7.0 and the ED50s of test compounds were calculated using the Litchfield-Wilcoxon method. % inhibitory activity was calculated from the following equation and the results are shown in Table 2. % inhibitory activity of test compound=(total acid output of control group−total acid output of the group treated with test compounds)/total acid output of control group X 100

Counter-ions that a name gives are not always drawn.

The results in this text go back to patent US7642269B2, “Pyrrolo[3,2-B]pyridine derivatives and processes for the preparation thereof” (Yuhan Corporation, priority 2005, dated 2010).

T1 sequence (P19156 2-1034 limits assumed): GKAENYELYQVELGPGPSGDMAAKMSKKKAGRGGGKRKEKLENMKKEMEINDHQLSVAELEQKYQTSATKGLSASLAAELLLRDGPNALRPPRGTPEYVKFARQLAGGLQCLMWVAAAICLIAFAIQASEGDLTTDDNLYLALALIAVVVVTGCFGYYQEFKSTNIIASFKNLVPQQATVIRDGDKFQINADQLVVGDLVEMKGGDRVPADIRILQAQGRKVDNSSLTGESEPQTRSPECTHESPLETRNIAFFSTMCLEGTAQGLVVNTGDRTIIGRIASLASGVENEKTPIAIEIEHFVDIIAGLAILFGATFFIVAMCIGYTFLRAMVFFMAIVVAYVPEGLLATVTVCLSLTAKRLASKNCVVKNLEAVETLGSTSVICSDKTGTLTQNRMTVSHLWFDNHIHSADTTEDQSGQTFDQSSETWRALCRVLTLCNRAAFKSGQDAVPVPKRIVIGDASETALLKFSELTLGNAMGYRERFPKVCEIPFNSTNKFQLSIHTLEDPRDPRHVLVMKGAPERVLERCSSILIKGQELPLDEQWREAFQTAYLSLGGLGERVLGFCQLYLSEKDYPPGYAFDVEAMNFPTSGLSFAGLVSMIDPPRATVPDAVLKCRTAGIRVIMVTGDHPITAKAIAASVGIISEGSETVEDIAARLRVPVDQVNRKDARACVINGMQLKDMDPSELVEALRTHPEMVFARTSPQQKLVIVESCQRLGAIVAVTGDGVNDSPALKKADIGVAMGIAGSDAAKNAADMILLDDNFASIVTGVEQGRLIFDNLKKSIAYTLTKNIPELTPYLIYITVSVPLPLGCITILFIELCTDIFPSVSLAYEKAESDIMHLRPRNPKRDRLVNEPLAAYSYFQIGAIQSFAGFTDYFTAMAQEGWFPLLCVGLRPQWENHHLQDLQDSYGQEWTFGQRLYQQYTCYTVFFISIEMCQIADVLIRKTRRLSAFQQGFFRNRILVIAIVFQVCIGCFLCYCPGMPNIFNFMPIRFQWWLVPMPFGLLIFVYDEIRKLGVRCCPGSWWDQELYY
T1 sequence (P18434 whole entry partner): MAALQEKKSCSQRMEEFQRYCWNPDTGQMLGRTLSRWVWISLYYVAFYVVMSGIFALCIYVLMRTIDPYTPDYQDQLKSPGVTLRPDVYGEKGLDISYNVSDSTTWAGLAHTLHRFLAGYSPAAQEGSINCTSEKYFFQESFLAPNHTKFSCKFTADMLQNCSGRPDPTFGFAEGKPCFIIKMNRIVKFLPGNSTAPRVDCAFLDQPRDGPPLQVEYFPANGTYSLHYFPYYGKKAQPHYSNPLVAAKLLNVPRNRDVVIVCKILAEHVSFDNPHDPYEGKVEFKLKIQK

Turning to `Cc1c(C)n(CC2CCC2)c2c(OCc3ccc(F)cc3)ccnc12.Cl` [Example 55, 1-cyclobutylmethyl-7-(4-fluorobenzyloxy)-2,3-dimethyl-1H-pyrrolo[3,2-b]pyridine hydrochloride], it took 0.07 µM to reach half-maximal inhibition against H^+/K^+-ATPase (IC50). Also, the ED50 in assay [1] amounted to 1.3 mg/kg.

For the molecule `COCCn1c(C)c(C)c2nccc(OCc3ccc(F)cc3)c21.Cl` [Example 61, 7-(4-fluorobenzyloxy)-1-(2-methoxyethyl)-2,3-dimethyl-1H-pyrrolo[3,2-b]pyridine hydrochloride], the IC50 against H^+/K^+-ATPase was 0.1 µM. This molecule showed an ED50 in assay [1] of 3 mg/kg. For `CCCn1c(C)c(C)c2nccc(OCc3ccc(F)cc3)c21.Cl` [Example 62, 7-(4-fluorobenzyloxy)-2,3-dimethyl-1-propyl-1H-pyrrolo[3,2-b]pyridine hydrochloride] the same measures were 0.11 µM and 1.6 mg/kg. For the molecule `C=CCn1c(C)c(C)c2nccc(OCc3ccc(Cl)cc3)c21.Cl` [Example 72, 1-allyl-7-(4-chlorobenzyloxy)-2,3-dimethyl-1H-pyrrolo[3,2-b]pyridine hydrochloride], the IC50 at H^+/K^+-ATPase was determined as 0.03 µM. This molecule also came in with an ED50 in assay [1] of 2 mg/kg.

In the case of `Cc1c(C)n(Cc2ccccc2)c2c(OCc3ccc(Cl)cc3)ccnc12.Cl` [Example 73, 1-benzyl-7-(4-chlorobenzyloxy)-2,3-dimethyl-1H-pyrrolo[3,2-b]pyridine hydrochloride], the IC50 at H^+/K^+-ATPase stood at 0.04 µM. The molecule also displayed an ED50 in assay [1] of 2.5 mg/kg.

`COCCn1c(C)c(C)c2nccc(OCc3ccc(Cl)cc3)c21.Cl` [Example 86, 7-(4-chlorobenzyloxy)-1-(2-methoxyethyl)-2,3-dimethyl-1H-pyrrolo[3,2-b]pyridine hydrochloride] yielded a concentration for half-maximal inhibition (IC50) against H^+/K^+-ATPase of 0.05 µM. The same molecule had an ED50 in assay [1] of 1.1 mg/kg. For `Cc1c(C)n(CC2CC2)c2c(OCc3ccc(Cl)cc3)ccnc12.Cl` [Example 97, 7-(4-chlorobenzyloxy)-1-cyclopropylmethyl-2,3-dimethyl-1H-pyrrolo[3,2-b]pyridine hydrochloride] the same measures were 0.09 µM and 2 mg/kg. `Cc1c(C)n(Cc2ccc(Cl)cc2)c2c(OCc3cc(F)cc(F)c3)ccnc12` [Example 183, 1-(4-chlorobenzyl)-7-(3,5-difluorobenzyloxy)-2,3-dimethyl-1H-pyrrolo[3,2-b]pyridine hydrochloride] yielded an IC50 against H^+/K^+-ATPase of 1.21 µM. Same read-out and setting: the value for `Cc1c(C)n(Cc2ccc(F)cc2)c2c(OCc3cc(F)cc(F)c3)ccnc12` [Example 184, 7-(3,5-difluorobenzyloxy)-1-(4-fluorobenzyl)-2,3-dimethyl-1H-pyrrolo[3,2-b]pyridine hydrochloride] was 1.07 µM; that for `Cc1c(C)n(Cc2ccccc2)c2c(OCc3cc(F)cc(F)c3)ccnc12` [Example 195, 1-benzyl-7-(3,5-difluorobenzyloxy)-2,3-dimethyl-1H-pyrrolo[3,2-b]pyridine hydrochloride] was 0.68 µM.

In turn, `Cc1ccc(Cn2c(C)c(C)c3nccc(OCc4cc(F)cc(F)c4)c32)cc1` [Example 196, 7-(3,5-difluorobenzyloxy)-1-(4-methylbenzyl)-2,3-dimethyl-1H-pyrrolo[3,2-b]pyridine hydrochloride] showed an IC50 against H^+/K^+-ATPase of 0.38 µM. As to `Cc1ccc(Cn2c(C)c(C)c3nccc(OCc4ccc(C(F)(F)F)cc4)c32)cc1` [Example 200, 2,3-dimethyl-1-(4-methylbenzyl)-7-(4-trifluoromethylbenzyloxy)-1H-pyrrolo[3,2-b]pyridine hydrochloride], half-maximal inhibition against H^+/K^+-ATPase (IC50) was put at 0.6 µM.

The molecule `COc1cccc(Cn2c(C)c(C)c3nccc(OCc4ccc(C(F)(F)F)cc4)c32)c1` [Example 201, 1-(3-methoxybenzyl)-2,3-dimethyl-7-(4-trifluoromethylbenzyloxy)-1H-pyrrolo[3,2-b]pyridine hydrochloride] returned an IC50 against H^+/K^+-ATPase of 0.68 µM. Same read-out and setting: as for `Cc1[nH]c2c(OCc3ccc(Br)cc3)ccnc2c1C` [Example 218, 7-(4-bromobenzyloxy)-2,3-dimethyl-1H-pyrrolo[3,2-b]pyridine], the figure is 3.28 µM. Molecule `Cc1c(C)n(Cc2ccccc2)c2c(OCc3ccc(Br)cc3)ccnc12` [Example 219, 1-benzyl-7-(4-bromobenzyloxy)-2,3-dimethyl-1H-pyrrolo[3,2-b]pyridine hydrochloride] registered an IC50 against H^+/K^+-ATPase of 0.06 µM. On H^+/K^+-ATPase, `C=CCn1c(C)c(C)c2nccc(OCc3ccc(Br)cc3)c21` [Example 220, 1-allyl-7-(4-bromobenzyloxy)-2,3-dimethyl-1H-pyrrolo[3,2-b]pyridine hydrochloride] registered an IC50 of 0.05 µM.

For the molecule `Cc1c(C)n(Cc2ccc(F)cc2)c2c(OCc3ccc(Br)cc3)ccnc12` [Example 221, 7-(4-bromobenzyloxy)-1-(4-fluorobenzyl)-2,3-dimethyl-1H-pyrrolo[3,2-b]pyridine hydrochloride], the IC50 on H^+/K^+-ATPase worked out at 0.18 µM.

`Cc1c(C)n(Cc2cccc(F)c2)c2c(OCc3ccc(Br)cc3)ccnc12` [Example 222, 7-(4-bromobenzyloxy)-1-(3-fluorobenzyl)-2,3-dimethyl-1H-pyrrolo[3,2-b]pyridine hydrochloride] came in with an IC50 on H^+/K^+-ATPase of 0.06 µM. The same measure, in the same setting: the value for `Cc1cccc(Cn2c(C)c(C)c3nccc(OCc4ccc(Br)cc4)c32)c1` [Example 223, 7-(4-bromobenzyloxy)-2,3-dimethyl-1-(3-methylbenzyl)-1H-pyrrolo[3,2-b]pyridine hydrochloride] was 1.21 µM. In turn, `Cc1ccc(Cn2c(C)c(C)c3nccc(OCc4ccc(Br)cc4)c32)cc1` [Example 224, 7-(4-bromobenzyloxy)-2,3-dimethyl-1-(4-methylbenzyl)-1H-pyrrolo[3,2-b]pyridine hydrochloride] came in with an IC50 at H^+/K^+-ATPase of 0.12 µM. On the same count and under the same terms, as for `Cc1c(C)n(Cc2ccccc2F)c2c(OCc3ccc(Br)cc3)ccnc12` [Example 225, 7-(4-bromobenzyloxy)-1-(2-fluorobenzyl)-2,3-dimethyl-1H-pyrrolo[3,2-b]pyridine hydrochloride], the figure is 0.62 µM; as for `Cc1c(C)n(Cc2cccc(Cl)c2)c2c(OCc3ccc(Br)cc3)ccnc12` [Example 226, 7-(4-bromobenzyloxy)-1-(3-chlorobenzyl)-2,3-dimethyl-1H-pyrrolo[3,2-b]pyridine hydrochloride], 0.45 µM; as for `Cc1c(C)n(CC2CCC2)c2c(OCc3ccc(Br)cc3)ccnc12` [Example 227, 7-(4-bromobenzyloxy)-1-cyclobutylmethyl-2,3-dimethyl-1H-pyrrolo[3,2-b]pyridine hydrochloride], 0.09 µM. For `Cc1c(C)n(CC(C)C)c2c(OCc3ccc(Br)cc3)ccnc12` [Example 228, 7-(4-bromobenzyloxy)-1-isobutyl-2,3-dimethyl-1H-pyrrolo[3,2-b]pyridine hydrochloride], the IC50 at H^+/K^+-ATPase turned out to be 0.03 µM. `CCCn1c(C)c(C)c2nccc(OCc3ccc(Br)cc3)c21` [Example 229, 7-(4-bromobenzyloxy)-2,3-dimethyl-1-propyl-1H-pyrrolo[3,2-b]pyridine hydrochloride]: the IC50 at H^+/K^+-ATPase is 0.07 µM. As for `C=CCn1c(C)c(C)c2nccc(NCc3ccc(F)cc3)c21` [Example 254, N-(1-allyl-2,3-dimethyl-1H-pyrrolo[3,2-b]pyridin-7-yl)-4-fluorobenzylamine hydrochloride], the midpoint of inhibition against H^+/K^+-ATPase, the IC50, lay at 0.21 µM.

Take `Cc1c(C)n(CC2CC2)c2c(NCc3ccc(F)cc3)ccnc12` [Example 255, N-(1-cyclopropylmethyl-2,3-dimethyl-1H-pyrrolo[3,2-b]pyridin-7-yl)-4-fluorobenzylamine hydrochloride]: the IC50 against H^+/K^+-ATPase came to 0.55 µM. Same read-out and setting: the value for `COCCn1c(C)c(C)c2nccc(NCc3ccc(F)cc3)c21` [Example 256, N-[1-(2-methoxyethyl)-2,3-dimethyl-1H-pyrrolo[3,2-b]pyridin-7-yl]-4-fluorobenzylamine hydrochloride] was 2.08 µM; that for `CCCn1c(C)c(C)c2nccc(NCc3ccc(F)cc3)c21` [Example 260, N-(2,3-dimethyl-1-propyl-1H-pyrrolo[3,2-b]pyridin-7-yl)-4-fluorobenzylamine hydrochloride] was 1.21 µM; that for `Cc1c(C)n(Cc2ccccc2)c2c(NCc3ccc(F)cc3)ccnc12` [Example 261, N-(1-benzyl-2,3-dimethyl-1H-pyrrolo[3,2-b]pyridin-7-yl)-4-fluorobenzylamine hydrochloride] was 2.06 µM. On the same count and under the same terms, as for `Cc1ccc(Cn2c(C)c(C)c3nccc(NCc4ccc(F)cc4)c32)cc1` [Example 263, N-[1-(4-methylbenzyl)-2,3-dimethyl-1H-pyrrolo[3,2-b]pyridin-7-yl]-4-fluorobenzylamine hydrochloride], the figure is 1.45 µM; as for `Cc1nc2c(C)c(C)n(Cc3ccccc3)c2c(OCc2ccc(F)cc2)c1C` [Example 264, 1-benzyl-7-(4-fluorobenzyloxy)-2,3,5,6-tetramethyl-1H-pyrrolo[3,2-b]pyridine hydrochloride], 3.07 µM. On H^+/K^+-ATPase, `Cc1nc2c(C)c(C)n(Cc3ccccc3)c2c(NCc2ccc(F)cc2)c1C` [Example 268, N-(1-benzyl-2,3,5,6-tetramethyl-1H-pyrrolo[3,2-b]pyridin-7-yl)-4-fluorobenzylamine hydrochloride] showed an IC50 of 1.25 µM.

The IC50 is the point on the concentration scale where inhibition reaches its midpoint. Low readings indicate greater potency in that assay, high ones weaker potency in that assay. The term ED50 denotes the dose that gives a 50% effect, or the effect in half of the subjects. High values mean weaker potency, low ones greater potency.
